Where a name gives a salt, the structure may show the parent alone.
Key:
5-HT1B = target: T1, 5-HT1B (Rattus norvegicus, UniProt P28564); assay: 5-HT1B receptor binding in vitro (3H-5-HT, 50 nM 8-OH-DPAT included)
T1 construct: from tissue
Description: (§1) Compounds of the general formula (I) were tested for binding to 5-HT receptors and compared with known ligands by the following procedure:
(§2) Rat brain tissue (as specified in the table hereinafter) was homogenized using a Polytron homogenizer. The final pellet was resuspended in 125 vol (tissue wet weight) of buffer.
(§3) In all assays incubation was carried out for 10 min at 37° C.
Labelling of the 5-HT1B receptor was complicated by the fact that the available ligand ^3 H-5-HT is nonselective.
(§4) Detailed conditions for the receptor binding assay in vitro are tabulated below.

5-HT2 receptor subtype = conditions: background, in words; cited from earlier work
5-HT1A = target: T2, 5-HT1A (Rattus norvegicus, UniProt P19327); assay: 5-HT1A receptor binding in vitro (3H-8-OH-DPAT, rat frontal cortex/hippocampus); conditions: rat brain, ligand 3H-8-OH-DPAT 2 nM, 10 min 37° C.
T2 construct: from tissue
T2 sequence (P19327 1-422): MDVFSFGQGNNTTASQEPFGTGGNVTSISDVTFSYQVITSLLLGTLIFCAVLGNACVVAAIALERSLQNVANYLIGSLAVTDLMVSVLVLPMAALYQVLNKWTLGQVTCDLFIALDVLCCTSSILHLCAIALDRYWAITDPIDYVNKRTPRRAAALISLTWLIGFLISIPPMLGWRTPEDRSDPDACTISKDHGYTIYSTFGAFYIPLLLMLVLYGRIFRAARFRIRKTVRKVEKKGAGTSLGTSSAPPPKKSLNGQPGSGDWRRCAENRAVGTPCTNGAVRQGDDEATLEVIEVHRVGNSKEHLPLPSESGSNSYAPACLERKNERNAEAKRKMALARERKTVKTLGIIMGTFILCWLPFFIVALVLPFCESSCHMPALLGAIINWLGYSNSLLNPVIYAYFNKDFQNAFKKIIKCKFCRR
Description: as §1, §2, §3, §4

5-HT1 recognition sites = conditions: background, Ann.Reports Med.Chem. 21 (1986), 42-43; cited from earlier work
5-HT1A receptors = conditions: background, in words; cited from earlier work

T1 sequence (P28564 whole entry): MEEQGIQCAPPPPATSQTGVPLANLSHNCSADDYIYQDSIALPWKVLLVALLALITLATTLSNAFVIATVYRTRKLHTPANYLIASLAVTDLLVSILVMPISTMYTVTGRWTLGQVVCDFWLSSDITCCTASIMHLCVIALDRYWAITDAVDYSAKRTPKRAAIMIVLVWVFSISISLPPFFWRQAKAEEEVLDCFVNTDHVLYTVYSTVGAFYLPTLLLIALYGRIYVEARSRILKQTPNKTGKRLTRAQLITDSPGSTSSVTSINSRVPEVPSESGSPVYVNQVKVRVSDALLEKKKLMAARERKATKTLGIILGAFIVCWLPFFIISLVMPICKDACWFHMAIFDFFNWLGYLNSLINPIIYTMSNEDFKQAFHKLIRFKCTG

| Compound | IC50 (5-HT1B) | IC50 (5-HT1A) | also measured |
| --- | --- | --- | --- |
| O=C(c1ccc(F)cc1)C1CCN(CCn2c(=O)[nH]c3ccccc3c2=O)CC1 [ketanserin] |  |  | high affinity for the 5-HT2 receptor subtype (5-HT2 receptor subtype): high affinity |
| COc1ccc2[nH]cc(CCNCCCCN3C(=O)CC4(CCCC4)CC3=O)c2c1 [Example 4, 1-(4-(7,9-Dioxo-8-azaspiro[4,5]decan-8-yl)butyl-1-amino)-2-(5-methoxy-3-indolyl)-ethane, oxalate] | > 1000 nM | 4 nM |  |
| COc1ccc2[nH]cc(C3=CCNCC3)c2c1 [RU 24969] |  |  | affinity for 5-HT1 recognition sites (5-HT1 recognition sites): high affinity |
| O=C1c2ccccc2C(=O)N1CCCCNCCc1c[nH]c2ccccc12 [Example 2, 1-(4-Phthalimidobutyl-1-amino)-2-(3-indolyl)-ethane, oxalate] | 148 nM | 375 nM |  |
| CCCN(CCC)C1CCc2cccc(O)c2C1 (stereo not drawn) [Example 8-OH-DPAT, 8-hydroxy-2-(di-n-propylamino)tetralin] |  |  | binds with high affinity to 5-HT1A receptors (5-HT1A receptors): high affinity |
| COc1ccc2[nH]cc(CCNCCCCN3C(=O)C4C5C=CC(C6C=CC65)C4C3=O)c2c1 (stereo not drawn) [Example 5, 1-(4-(1,3-Dioxo-4,7-etheno-1,3,3a,4,4a,6a,7,7a-octa-hydro-2 H-cyclobut(f]isoindol-2-yl)butyl-1-amino)-2(5-methoxy-3-indolyl)-ethand, oxalate] | > 1000 nM | 2.5 nM |  |

Further lines, with some results ahead:

| IC50 (5-HT1B) | IC50 (5-HT1A) | Compound | also measured |
| --- | --- | --- | --- |
| > 1000 nM |  | O=C1c2ccccc2S(=O)(=O)N1CCCCN1CCN(c2ncccn2)CC1 [Ipsapirone, reference compound] |  |
| 480 nM | 26 nM | O=C1C2C3C=CC(C4C=CC43)C2C(=O)N1CCCCNCCc1c[nH]c2ccccc12 (stereo not drawn) [Example 1, 1-(4-(1,3-Dioxo-4,7-etheno-1,3,3a,4,4a,6a,7,7a-octahydro-2 H-cyclobut[f]isoindol-2-yl)butyl-1-amino)-2-(3-indolyl)-ethane, oxalate] |  |
